Data as given in patent US4616010A, “Imidazodiazepine derivatives” (Hoffmann-La Roche Inc., priority 1985, dated 1986).

Tests used:
[1] = target: central benzodiazepine receptors; test: inhibition of the binding of tritiated diazepam at the specific benzodiazepine receptors in the cerebral cortex
Text: The affinity of compounds of formula I to the central benzodiazepine receptors has been determined according to the method described in Life Science 20, 2101-2110 (1977) and Science 198, 849-851 (1977). According to this method, the inhibition of the binding of tritiated diazepam at the specific benzodiazepine receptors in the cerebral cortex by the respective test substances is ascertained. The IC50 ("50% inhibiting concentration") is that concentration of the respective test substance which brings about a 50 percent inhibition of the specific binding of the tritiated diazepam at the specific benzodiazepine receptors in the cerebral cortex.

[2] = system: spasmodic seizures caused by pentetrazole; test: antipentetrazole test (anticonvulsant activity); format: in vivo; conditions: Rattus norvegicus, po; female rats 60-80 g; compound orally 30 min before pentetrazole 120 mg/kg i.p.; dose protecting 50%, Probit method
Description: The central properties of the compounds of formula I in accordance with the invention can be determined, for example, in the antipentetrazole test described hereinafter, which is generally recognized for recording anticonvulsant properties.
In this animal experiment, the compound under investigation is administered orally to female rats weighing 60-80 g and 30 minutes later there are administered i.p. 120 mg/kg of pentetrazole, which causes emprosthotonus and tonic stretchings of the fore and/or hind limbs in unprotected experimental animals 1-4 minutes after the injection. Ten experimental animals are used per dosage of test substance. After counting the protected experimental animals, the ED50 is determined according to the Probit method. The ED50 is that dosage which protects 50% of the experimental animals from the spasmodic seizures caused by pentetrazole.

[3] = acute toxicity, single oral administration to mice; conditions: mouse, in vivo
Text: The results obtained with representative members of the class of compounds defined by formula I in the experiments described previously are compiled in the following Table. Moreover, the Table contains data concerning the acute toxicity of some of these compounds (LD50 in mg/kg in the case of single oral administration to mice).

Row | Structure (SMILES) | IC50 [1] [nM] | ED50 [2] [mg/kg] | LD50 [3] [mg/kg]
1 | O=C1c2c(Cl)cccc2-n2cnc(-c3cccc(Cl)c3)c2[C@@H]2CCCN12 [A] | 4.2 | 2.1 | 2500 to 5000
2 | O=C1c2c(Cl)cccc2-n2cnc(-c3cccc(C(F)(F)F)c3)c2[C@@H]2CCCN12 [B, (S)-8-chloro-11,12,13,13a-tetrahydro-1-(α,α,α-trifluoro-m-tolyl)-9H-imidazo[1,5-a]pyrrolo[2,1-c][1,4]benzodiazepin-9-one] | 40 | 4 | 2500 to 5000
